In paper PMC11647725, “Discovery of 4-(5-Membered)Heteroarylether-6-methylpicolinamide Negative Allosteric Modulators of Metabotropic Glutamate Receptor Subtype 5” (ACS Medicinal Chemistry Letters, 2024):

Tests used:
[1] = molecular target: T1, human mGlu1 (Homo sapiens, UniProt Q13255); test: mGlu selectivity, calcium mobilization assay; assay type: cell-based
T1 construct: expressed in transfected cells; host or cells: TREx-293, tetracycline-inducible
Description: (§1) the presence of 5% CO2, the dye solutions were removed and replaced with assay buffer using a microplate washer, leaving 20 μL of assay buffer in the cell plate. The compound, agonist, and cell plates were placed inside the Functional Drug Screening System (FDSS 7000 or uCell, Hamamatsu, Japan) to measure the calcium flux. Assays were run at 37 °C. A triple add protocol was used to measure Ca kinetics. Briefly, after establishment of a fluorescence baseline for 2 seconds (excitation, 480 nm; emission, 530 nm), 20 µL of test compound was added to the cells and the response was measured for 140 seconds. This was followed by the addition of 10 µL (5X) of an EC20 concentration of Glu agonist, and the response of the cells was measured for 125 seconds. A third addition occurred by adding 12 uL (5X) of an EC80 concentration of Glu agonist and the response of the cells was measured for 90 seconds. […] Calcium fluorescence was recorded as fold over basal fluorescence and raw data were normalized to the maximal response to Glu agonist (ECMax). Compound-evoked decreases in calcium response in the presence of Glu EC80 agonist were determined as inhibition activity, and potency (IC50) and maximum inhibition responses (% GluMin) of compounds were determined using a four-parameter logistical equation using GraphPad Prism (La Jolla, CA) or the Dotmatics software platform (Woburn, MA) : […]

[2] = molecular target: T2, human mGlu4 (Homo sapiens, UniProt Q14833); test: mGlu selectivity, calcium mobilization assay; assay type: cell-based
T2 construct: expressed in transfected cells
Description: as §1

[3] = Intrinsic clearance in human liver microsomes; assay type: in vitro ADME
Description: Mean values for each species were calculated from 3 replicates.
Intrinsic Clearance in Rat and Human Liver Microsomes
The in vitro intrinsic clearance (CL int) was investigated in commercially obtained hepatic microsomes from rat and human donors using the substrate depletion (i.e., loss-of-parent vs. time, or t 1/2 method) approach with analyte detection via liquid chromatography-tandem mass spectrometry (LC-MS/MS). For each species, mean %parent remaining values at each time point were calculated from replicates raw data (analyte:IS peak area ratios) and used to determine in vitro t 1/2 and CLint.
Experiments were carried out using a robot-assisted (TECAN model Evo 200). Compound was incubated (1 µM final concentration) in buffer (100 mM potassium phosphate pH 7.4 with 3 mM MgCl2) containing hepatic microsomes (0.5 mg/mL final concentration) from multiple species, discretely, at 37 °C under constant orbital shaking. After 5 minutes (pre-incubation), reactions were initiated by addition of nicotinamide adenine dinucleotide phosphate (NADPH, 1 mM final concentration). At selected time intervals (0, 3, 7, 15, 25, and 45 minutes) post-addition of NADPH, aliquots (50 µL) were taken and placed into a 96-shallow-well plate containing ice cold acetonitrile (150 µL) with carbamazepine (IS, 50 nM). The plates were then centrifuged (3000 rcf at 4 °C) for 10 minutes. The supernatants were transferred to a new 96-shallow-well daughter plate and diluted (1:1 v/v) with water (Milli-Q filtered). The plates were then sealed in preparation for LC-MS/MS analysis (see below).
Raw LC-MS/MS peak area data generated from the assay samples were used to construct natural log-transformed %parent remaining vs. time plots (using t = 0 minute post-NADPH addition sample data as starting point set to 100%). In vitro compound half-life (t 1/2) values were obtained using the following […]
k is the slope from linear regression analysis of the natural log-transformed data (using means from Where all replicates at each time point). Resulting t 1/2 values were then used to calculate hepatic CLint values according to the following equation and with the use of species-specific scale-up factors for liver weight (grams) per total body weight (kg): […]
CLint = in vitro t1/2 x 0.5 mg microsomes x 1 gram liver x kg body wt aScale-up factors used are 45 (rat) and 20 (human).4
Predicted hepatic clearance (CLhep) was calculated using the following equation: […]
Qh represents hepatic blood flow (mL/min/kg): 21 for human, 70 for rat, and 90 for mouse.
Prepared samples were injected (10 µL each) onto an AB Sciex Triple Quad 4500 mass spectrometer system with an Agilent 1260 Infinity II pump and autosampler. Mass spectrometer conditions are described in Table S1. Quantitation of compounds was performed via AB Sciex Multiquant software using the raw analyte:IS peak area ratios. The typical detection range was 0.5 ng/mL to ≥ 5,000 ng/mL utilizing a quadratic equation regression with 1/x2 weighting.
Correction for dilution of all brain samples (in extraction buffer and subsequently in blank plasma, as previously described) was performed post-quantitation. The corrections for dilution in extraction buffer employed correction factors specific to each brain weight (not shown).

[4] = molecular target: Muscarinic M2 (Homo sapiens, UniProt P08172); test: Lead Profiling Screen, Eurofins Panlabs; assay type: binding; details: Muscarinic M2, hum, read-out: % inh at 10 μM
[5] = molecular target: Neuropeptide Y Y1 (Homo sapiens, UniProt P25929); test: Lead Profiling Screen, Eurofins Panlabs; assay type: binding; details: Neuropeptide Y Y1, hum, read-out: % inh at 10 μM
[6] = molecular target: Serotonin (5-Hydroxytryptamine) 5-HT2B (Homo sapiens, UniProt P41595); test: Lead Profiling Screen, Eurofins Panlabs; assay type: binding; details: Serotonin 5-HT2B, hum, read-out: % inh at 10 μM
[7] = molecular target: Serotonin (5-Hydroxytryptamine) 5-HT3 (Homo sapiens, UniProt P46098); test: Lead Profiling Screen, Eurofins Panlabs; assay type: binding; details: Serotonin 5-HT3, hum, read-out: % inh at 10 μM
Chain of Serotonin (5-Hydroxytryptamine) 5-HT3 (P46098 24-478): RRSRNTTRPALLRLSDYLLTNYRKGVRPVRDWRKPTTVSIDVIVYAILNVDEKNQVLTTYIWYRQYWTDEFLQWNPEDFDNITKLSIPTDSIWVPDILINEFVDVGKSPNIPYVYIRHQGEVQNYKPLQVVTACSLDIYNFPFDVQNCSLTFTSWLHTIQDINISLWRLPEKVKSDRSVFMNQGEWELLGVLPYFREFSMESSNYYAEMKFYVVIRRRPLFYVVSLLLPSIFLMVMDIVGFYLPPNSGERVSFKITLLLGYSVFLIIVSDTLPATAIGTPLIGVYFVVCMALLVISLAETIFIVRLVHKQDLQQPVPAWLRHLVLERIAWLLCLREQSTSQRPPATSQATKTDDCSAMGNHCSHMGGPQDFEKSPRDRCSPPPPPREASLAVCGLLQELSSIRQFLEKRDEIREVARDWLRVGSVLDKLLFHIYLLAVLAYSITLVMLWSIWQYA

T2 sequence (Q14833 33-912): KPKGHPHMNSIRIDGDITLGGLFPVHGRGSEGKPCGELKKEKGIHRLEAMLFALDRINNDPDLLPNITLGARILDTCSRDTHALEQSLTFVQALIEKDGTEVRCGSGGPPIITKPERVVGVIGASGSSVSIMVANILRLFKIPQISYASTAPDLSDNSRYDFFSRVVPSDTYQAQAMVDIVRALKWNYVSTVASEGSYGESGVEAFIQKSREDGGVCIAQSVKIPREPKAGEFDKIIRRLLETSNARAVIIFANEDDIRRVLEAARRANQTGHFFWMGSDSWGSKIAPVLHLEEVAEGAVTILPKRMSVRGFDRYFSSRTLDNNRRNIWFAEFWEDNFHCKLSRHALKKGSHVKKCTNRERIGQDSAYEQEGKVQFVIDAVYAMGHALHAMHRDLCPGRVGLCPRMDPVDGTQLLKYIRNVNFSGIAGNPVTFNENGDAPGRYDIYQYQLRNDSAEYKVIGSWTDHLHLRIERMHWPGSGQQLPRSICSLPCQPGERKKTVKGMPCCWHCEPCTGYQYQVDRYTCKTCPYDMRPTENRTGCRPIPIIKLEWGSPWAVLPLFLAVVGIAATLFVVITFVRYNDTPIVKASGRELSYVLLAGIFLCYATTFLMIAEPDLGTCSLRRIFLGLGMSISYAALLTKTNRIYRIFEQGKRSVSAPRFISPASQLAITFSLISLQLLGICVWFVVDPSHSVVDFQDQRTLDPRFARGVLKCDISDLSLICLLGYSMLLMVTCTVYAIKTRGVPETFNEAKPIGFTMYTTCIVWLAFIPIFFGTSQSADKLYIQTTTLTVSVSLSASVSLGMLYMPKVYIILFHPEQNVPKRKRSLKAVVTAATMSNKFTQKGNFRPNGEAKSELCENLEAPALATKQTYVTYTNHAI
T1 sequence (Q13255 19-1194): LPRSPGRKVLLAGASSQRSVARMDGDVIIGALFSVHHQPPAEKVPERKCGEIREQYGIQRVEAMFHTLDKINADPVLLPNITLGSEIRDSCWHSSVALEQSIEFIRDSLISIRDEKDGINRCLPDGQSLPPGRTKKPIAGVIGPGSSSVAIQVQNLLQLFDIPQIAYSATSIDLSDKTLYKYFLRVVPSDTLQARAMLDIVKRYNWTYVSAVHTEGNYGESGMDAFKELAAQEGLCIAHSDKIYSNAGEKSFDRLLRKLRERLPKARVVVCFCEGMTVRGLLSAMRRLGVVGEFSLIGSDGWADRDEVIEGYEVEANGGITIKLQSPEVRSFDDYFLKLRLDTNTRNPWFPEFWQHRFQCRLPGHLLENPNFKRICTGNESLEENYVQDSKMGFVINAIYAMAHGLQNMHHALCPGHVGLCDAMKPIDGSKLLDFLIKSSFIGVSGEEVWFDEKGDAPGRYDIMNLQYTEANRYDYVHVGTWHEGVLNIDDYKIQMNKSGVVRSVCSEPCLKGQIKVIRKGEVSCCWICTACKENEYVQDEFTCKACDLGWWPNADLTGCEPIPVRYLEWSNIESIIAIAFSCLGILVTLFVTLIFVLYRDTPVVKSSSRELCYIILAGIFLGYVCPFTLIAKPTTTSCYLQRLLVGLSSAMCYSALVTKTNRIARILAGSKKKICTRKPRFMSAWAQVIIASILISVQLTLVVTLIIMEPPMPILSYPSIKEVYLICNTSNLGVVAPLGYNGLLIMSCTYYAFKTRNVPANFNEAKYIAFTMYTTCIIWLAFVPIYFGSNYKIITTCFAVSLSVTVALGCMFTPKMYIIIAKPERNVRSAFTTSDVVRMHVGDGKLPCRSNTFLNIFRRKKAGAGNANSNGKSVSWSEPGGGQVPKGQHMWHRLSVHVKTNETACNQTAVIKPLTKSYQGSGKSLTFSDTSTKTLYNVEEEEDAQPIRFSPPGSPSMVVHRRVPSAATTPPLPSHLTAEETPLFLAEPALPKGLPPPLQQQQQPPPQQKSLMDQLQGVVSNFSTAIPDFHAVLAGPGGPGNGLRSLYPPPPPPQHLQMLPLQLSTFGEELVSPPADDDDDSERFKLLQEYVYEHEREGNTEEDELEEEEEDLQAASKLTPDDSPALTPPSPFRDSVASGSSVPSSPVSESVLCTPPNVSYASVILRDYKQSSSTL
Chain of Neuropeptide Y Y1 (P25929 whole entry): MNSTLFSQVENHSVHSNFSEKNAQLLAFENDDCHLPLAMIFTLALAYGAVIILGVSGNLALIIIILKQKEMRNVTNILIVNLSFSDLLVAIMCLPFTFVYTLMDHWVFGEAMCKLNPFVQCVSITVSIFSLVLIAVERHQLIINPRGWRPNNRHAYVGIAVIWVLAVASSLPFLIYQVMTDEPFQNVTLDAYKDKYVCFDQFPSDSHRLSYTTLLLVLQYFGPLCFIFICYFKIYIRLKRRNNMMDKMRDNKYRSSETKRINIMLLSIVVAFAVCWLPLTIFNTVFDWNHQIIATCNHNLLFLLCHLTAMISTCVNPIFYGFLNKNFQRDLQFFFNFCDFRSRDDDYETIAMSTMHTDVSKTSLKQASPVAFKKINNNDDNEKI
Chain of Muscarinic M2 (P08172 whole entry): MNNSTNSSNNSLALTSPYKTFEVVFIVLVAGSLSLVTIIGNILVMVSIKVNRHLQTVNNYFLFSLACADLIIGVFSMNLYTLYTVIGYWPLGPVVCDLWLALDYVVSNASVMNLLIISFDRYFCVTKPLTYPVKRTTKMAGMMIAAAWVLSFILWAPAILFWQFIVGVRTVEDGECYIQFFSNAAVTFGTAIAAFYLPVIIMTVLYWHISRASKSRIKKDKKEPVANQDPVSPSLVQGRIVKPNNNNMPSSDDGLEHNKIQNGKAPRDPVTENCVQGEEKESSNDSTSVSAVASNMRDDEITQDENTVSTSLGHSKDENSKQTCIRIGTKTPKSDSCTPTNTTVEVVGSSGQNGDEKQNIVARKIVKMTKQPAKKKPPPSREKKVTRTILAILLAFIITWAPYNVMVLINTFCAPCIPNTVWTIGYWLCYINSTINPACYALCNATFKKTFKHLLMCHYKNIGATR
Chain of Serotonin (5-Hydroxytryptamine) 5-HT2B (P41595 whole entry): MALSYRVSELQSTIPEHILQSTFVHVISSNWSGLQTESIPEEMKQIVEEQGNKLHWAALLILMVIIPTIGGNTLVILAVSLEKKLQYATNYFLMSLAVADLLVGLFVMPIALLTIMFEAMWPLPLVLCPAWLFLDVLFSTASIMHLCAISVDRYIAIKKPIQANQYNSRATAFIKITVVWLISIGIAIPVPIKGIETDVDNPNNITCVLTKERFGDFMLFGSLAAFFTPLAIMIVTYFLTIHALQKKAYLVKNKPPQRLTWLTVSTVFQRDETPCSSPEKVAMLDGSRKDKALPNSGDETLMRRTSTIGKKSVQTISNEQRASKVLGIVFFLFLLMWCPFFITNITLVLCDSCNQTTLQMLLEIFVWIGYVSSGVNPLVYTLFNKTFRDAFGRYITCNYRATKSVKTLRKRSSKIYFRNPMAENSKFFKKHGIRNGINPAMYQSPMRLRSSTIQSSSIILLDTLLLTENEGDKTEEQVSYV

Cc1cc(Oc2cnn(C)c2)cc(C(=O)Nc2ccc(F)cn2)n1 [22iA]
IC50, human mGlu1 [1]: inactive | IC50, human mGlu4 [2]: inactive | CLint scaled at 40 min, 1 µM ([3]; pH 7.4, human liver microsomes): 9 mL/min/kg | CLhep, human ([3]; predicted hepatic clearance based on microsomal CLint): 6 mL/min/kg | inhibition at 10 µM [4]: -2% | inhibition at 10 µM [5]: -2% | inhibition at 10 µM [6]: 40% | inhibition at 10 µM [7]: -6%
